In patent publication US11883387B2, “PqsR inverse agonists” (HELMHOLTZ-ZENTRUM FÜR INFEKTIONSFORSCHUNG GMBH, priority 2018, dated 2024):
pIC50: −log10 of the molar value.

Columns and labels:
[1] = system: P. aeruginosa pyocyanin production; test: Pyocyanin assay; format: cell-based, P. aeruginosa PA14; conditions: Pseudomonas aeruginosa, PA14, 16 h, read-out: IC50-value towards pyocyanin production, PA14 in PPGAS medium, 16 h
Method in brief: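 PA14 in PPGAS medium from OD600 0.02 grown 16 h at 37 °C, 200 rpm, with compounds. Pyocyanin extracted with chloroform, back-extracted into 0.2 M HCl, OD520 normalised to OD600.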

[2] = Metabolic stability in mouse liver microsomes (MLM); format: in vitro ADME; conditions: 1 μM compound, 0.5 mg/mL MLM, 1 mM NADPH, 37° C., read-out: half-life (t1/2) towards MLM
Experimental: For the evaluation of phase I metabolic stability, the compound (1 μM) was incubated with 0.5 mg/mL MLM (Corning) and 1 mM NADPH at 37° C. for 0, 5, 10, 15 and 30 min. The metabolic stability of Verapamil, Diphenhydramine and Benzydamine (1 μM each) were determined in parallel to confirm the enzymatic activity of the MLM. The incubation was stopped by addition of 2 volumes of acetonitrile containing internal standard (1 μM Leucine Enkephaline). Samples were centrifuged (15 min, 3,500 rpm). Concentration of the remaining test compound at the different time points was analyzed by HPLC-MS/MS and used to determine half-life (t1/2).

[3] = Kinetic Turbidimetric Aqueous Solubility at room temperature for 5 min; format: physicochemical; conditions: PBS buffer, kinetic from dmso stock, 2% DMSO
Experimental: Kinetic Turbidimetric Aqueous Solubility at room temperature for 5 min. Test compound was diluted in PBS buffer to give a range of concentrations (typically 0.4, 2, 4, 20, 40, 100, and 200 μM, final DMSO concentration 2%) and incubated at room temperature for 5 min. Absorbance was measured at a wavelength of 620 nm and the solubility was estimated from the concentration of test compound that produces an increase in absorbance above the vehicle control (i.e., […]). Data was analyzed by fitting a four parameter sigmoidal function to the measured and normalized absorbances and AUC calculation providing access to Log S (decadic logarithm of the solubility).

PqsR = PqsR (Pseudomonas aeruginosa, UniProt Q9I4X0); test: E. coli based β-galactosidase reporter gene assay (PqsR inverse agonistic activity); format: cell-based; design: expressed in transfected cells; host or cells: Escherichia coli DH5α
Sequence of PqsR (Q9I4X0 whole entry): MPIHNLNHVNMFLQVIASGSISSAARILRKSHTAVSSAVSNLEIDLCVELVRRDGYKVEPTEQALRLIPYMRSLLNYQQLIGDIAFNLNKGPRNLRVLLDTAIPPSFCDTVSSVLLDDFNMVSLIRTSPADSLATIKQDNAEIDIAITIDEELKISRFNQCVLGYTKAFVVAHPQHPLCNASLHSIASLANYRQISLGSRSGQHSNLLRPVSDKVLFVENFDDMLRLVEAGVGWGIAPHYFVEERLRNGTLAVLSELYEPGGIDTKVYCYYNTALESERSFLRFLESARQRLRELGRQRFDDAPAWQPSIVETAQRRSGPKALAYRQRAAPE
Method in brief: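 E. coli DH5α carrying pEAL08-2 (tac-driven pqsR with pqsA-lacZ) was grown to OD600 0.2 and incubated with 0.001–10 μM compound plus 50 nM PQS for 2.5 h at 37 °C. β-Galactosidase activity was measured by ONPG conversion in permeabilized cells and normalized between the no-PQS and solvent controls. IC50 came from concentration variation.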

| SMILES | pIC50 [1] | half-life at 1 μM [2] | solubility at 5 min [3] | pIC50 (PqsR) |
| --- | --- | --- | --- | --- |
| O=C(c1ccccc1)c1ccc(-n2cc(CNc3ccnc(C(F)(F)F)c3)nn2)cc1 [Compound 004, Phenyl(4-(4-(((2-(trifluoromethyl)pyridin-4-yl)amino)methyl)-1H-1,2,3-triazol-1-yl)phenyl)methanone] | 5.30 to 6.00 | > 1 h | > 25 µM | ≥ 7.30 |
| FC(F)(F)c1cc(NCc2cn(-c3ccc(Oc4ccccc4)cc3)nn2)cc(I)n1 [Compound 007, 2-Iodo-N-((1-(4-phenoxyphenyl)-1H-1,2,3-triazol-4-yl)methyl)-6-(trifluoromethyl)pyridin-4-amine] | 6.00 to 6.60 | 0.517 to 1 h | – | ≥ 7.30 |
| FC(F)(F)c1cc(NCc2cn(-c3ccc(Oc4ccc(Cl)cc4)cc3)nn2)ccn1 [Compound 037, N-((1-(4-(4-Chlorophenoxy)phenyl)-1H-1,2,3-triazol-4-yl)methyl)-2-(trifluoromethyl)pyridin-4-amine] | – | > 1 h | > 10 µM | ≥ 7.30 |
| FC(F)(F)c1cc(NCc2cn(-c3ccc(Br)cc3)nn2)ccn1 [Compound 039, N-((1-(4-Bromophenyl)-1H-1,2,3-triazol-4-yl)methyl)-2-(trifluoromethyl)pyridin-4-amine] | – | 0.517 to 1 h | > 50 µM | 6.00 to 6.60 |
| FC(F)(F)c1cc(NCc2cn(-c3ccc(-n4ccc5ccccc54)cc3)nn2)ccn1 [Compound 040, N-((1-(4-(1H-Indol-1-yl)phenyl)-1H-1,2,3-triazol-4-yl)methyl)-2-(trifluoromethyl)pyridin-4-amine] | 6.00 to 6.60 | 0.517 to 1 h | > 25 µM | 6.60 to 7.29 |
| N#Cc1cc(NCc2cn(-c3ccc(Oc4ccccc4)cc3)nn2)ccn1 [Compound 041, 4-(((1-(4-Phenoxyphenyl)-1H-1,2,3-triazol-4-yl)methyl)amino)picolinonitrile] | – | 0.517 to 1 h | > 10 µM | ≥ 7.30 |
| FC(F)(F)c1cc(NCc2cn(-c3ccc(-n4cnc5ccccc54)cc3)nn2)ccn1 [Compound 045, N-((1-(4-(1H-benzo[d]imidazol-1-yl)phenyl)-1H-1,2,3-triazol-4-yl)methyl)-2-(trifluoromethyl)pyridin-4-amine] | 5.30 to 6.00 | 0.517 to 1 h | > 25 µM | 6.60 to 7.29 |
| FC(F)(F)c1cc(NCc2cn(-c3ccc(-n4ncc5ccccc54)cc3)nn2)ccn1 [Compound 046, N-((1-(4-(1H-indazol-1-yl)phenyl)-1H-1,2,3-triazol-4-yl)methyl)-2-(trifluoromethyl)pyridin-4-amine] | 6.00 to 6.60 | 0.517 to 1 h | > 25 µM | 6.60 to 7.29 |
| Clc1cc(NCc2cn(-c3ccc(Oc4ccccc4)cc3)nn2)cc(Cl)n1 [Compound 048, 2,6-Dichloro-N-((1-(4-phenoxyphenyl)-1H-1,2,3-triazol-4-yl)methyl)pyridin-4-amine] | ≥ 6.60 | 0.517 to 1 h | – | ≥ 7.30 |
| O=C(c1ccccc1)c1ccc(-n2cc(CSc3ccnc(C(F)(F)F)c3)nn2)cc1 [Compound 057, Phenyl(4-(4-(((2-(trifluoromethyl)pyridin-4-yl)thio)methyl)-1H-1,2,3-triazol-1-yl)phenyl)methanone] | – | > 1 h | – | 6.60 to 7.29 |
| Nc1cc(SCc2cnc(-c3ccc(Oc4ccccc4)cc3)s2)nc(C(F)(F)F)n1 [Compound 068, 6-(((2-(4-phenoxyphenyl)thiazol-5-yl)methyl)thio)-2-(trifluoromethyl)pyrimidin-4-amine] | – | > 1 h | > 10 µM | – |
| COc1ccc(-c2ncc(CSc3cc(N)nc(C(F)(F)F)n3)s2)cc1Cl [Compound 069, 6-(((2-(3-chloro-4-methoxyphenyl)thiazol-5-yl)methyl)thio)-2-(trifluoromethyl) pyrimidin-4-amine] | – | > 1 h | > 25 µM | – |
| Fc1ccc(Oc2ccc(-c3nc(CNc4ccnc(C(F)(F)F)c4)cs3)cn2)cc1 [Compound 083, N-((2-(6-(4-Fluorophenoxy)pyridin-3-yl)thiazol-4-yl)methyl)-2-(trifluoromethyl)pyridin-4-amine] | – | > 1 h | – | 6.60 to 7.29 |
| Fc1ccc(Oc2ccc(-c3nc(CNc4ccnc(C(F)(F)F)c4)cs3)cc2)cc1 [Compound 088, N-((2-(4-(4-Fluorophenoxy)phenyl)thiazol-4-yl)methyl)-2-(trifluoromethyl)pyridin-4-amine] | – | > 1 h | – | ≥ 7.30 |
| FC(F)(F)c1cc(NCc2cnc(-c3ccc(Oc4ccccc4)cc3)s2)cc(Cl)n1 [Compound 092, 2-Chloro-N-((2-(4-phenoxyphenyl)thiazol-5-yl)methyl)-6-(trifluoromethyl)pyridin-4-amine] | 6.00 to 6.60 | 0.517 to 1 h | – | ≥ 7.30 |
| Clc1cc(NCc2cnc(-c3ccc(Oc4ccccc4)cc3)s2)ccn1 [Compound 093, 2-Chloro-N-((2-(4-phenoxyphenyl)thiazol-5-yl)methyl)pyridin-4-amine] | 6.00 to 6.60 | 0.517 to 1 h | – | ≥ 7.30 |
| FC(F)(F)c1cc(NCc2ccc(-c3ccc(Cl)nc3)cn2)ccn1 [Compound 098, N-((6′-Chloro-[3,3′-bipyridin]-6-yl)methyl)-2-(trifluoromethyl)pyridin-4-amine] | – | > 1 h | ≥ 100 µM | 6.60 to 7.29 |
| FC(F)(F)c1cc(NCc2ccc(-c3ccc(Oc4ccccc4)nc3)cn2)ccn1 [Compound 100, N-((6′-Phenoxy-[3,3′-bipyridin]-6-yl)methyl)-2-(trifluoromethyl)pyridin-4-amine] | – | 0.517 to 1 h | > 25 µM | 6.60 to 7.29 |
| FC(F)(F)c1cc(NCc2ccc(-c3cccc(Oc4ccccc4)c3)cn2)ccn1 [Compound 103, N-((5-(3-Phenoxyphenyl)pyridin-2-yl)methyl)-2-(trifluoromethyl)pyridin-4-amine] | 5.30 to 6.00 | 0.517 to 1 h | – | 6.00 to 6.60 |
| FC(F)(F)c1cc(NCc2nc3cc(Cl)c(Cl)cc3[nH]2)ccn1 [Compound 121, N-((5,6-Dichloro-1H-benzo[d]imidazol-2-yl)methyl)-2-(trifluoromethyl)pyridin-4-amine] | – | 0.517 to 1 h | ≥ 100 µM | 6.00 to 6.60 |
| FC(F)(F)c1cc(NCc2cc(-c3ccc(Oc4ccccc4)cc3)no2)ccn1 [Compound 139, N-((3-(4-phenoxyphenyl)isoxazol-5-yl)methyl)-2-(trifluoromethyl)pyridin-4-amine] | – | 0.517 to 1 h | – | ≥ 7.30 |
| Fc1ccc(Oc2ccc3[nH]c(CNc4ccnc(C(F)(F)F)c4)nc3c2)cc1 [Compound 172, N-((5-(4-fluorophenoxy)-1H-benzo[d]imidazol-2-yl)methyl)-2-(trifluoromethyl)pyridin-4-amine] | 6.00 to 6.60 | 0.517 to 1 h | > 25 µM | – |
| Nc1cc(OCc2nc3cc(Oc4ccccc4)ccc3[nH]2)nc(C(F)(F)F)n1 [Compound 181, 6-((5-phenoxy-1H-benzo[d]imidazol-2-yl)methoxy)-2-(trifluoromethyl)pyrimidin-4-amine] | – | > 1 h | > 50 µM | 6.60 to 7.29 |
